Reference: ChEMBL document CHEMBL3044882, “Mosquito larvicidal studies of some chalcone analogues and their derived products: structureactivity relationship analysis” (2011)
Activity calls are given as the source filed them. The rule behind the calls is not given here.

Columns and labels:
[1] = tested on: Culex quinquefasciatus; assay: Toxicity against third instar larve of Culex quinquefasciatus after 24 hr; type: functional
[2] = tested on: Culex quinquefasciatus; assay: Toxicity against third instar larve of Culex quinquefasciatus assessed as mortality at 100 ugcm'-3 after 24 hr; type: functional

Compound | LC50 [1] [umol/dm3] | mortality [2]
O=[N+]([O-])c1ccc(NN=C(/C=C/c2ccccc2)/C=C/c2ccccc2)c([N+](=O)[O-])c1 | 2638.2 | inactive
CC(/C=C/c1ccccc1)=N\Nc1ccccc1 | 465 | 
O=C(/C=C/c1ccccc1)c1ccccc1 [CHALCONE] | 90 | 100%
O=[N+]([O-])c1ccc(N/N=C(/C=C/c2ccccc2)c2ccccc2)c([N+](=O)[O-])c1 | 2531.3 | inactive
O=C(/C=C/c1ccc(Cl)cc1)c1ccccc1O | 81 | 100%
CC(/C=C/c1ccccc1)=N/O | 345 | 
O=C(/C=C/c1ccc([N+](=O)[O-])cc1)c1ccccc1O | 881.6 | 
O=C(/C=C/c1ccccc1)c1ccccc1O [2'-HYDROXYCHALCONE] | 55 | 100%
O=C(/C=C/c1ccc([N+](=O)[O-])cc1)c1ccccc1 | 959.5 | 
O=C(/C=C/c1ccc(Cl)cc1)c1ccccc1 [4-CHLORO CHALCONE] | 5 | 
COc1cccc(/C=C/C(=O)c2ccccc2)c1-c1ccc(O)cc1 | 1474 | 
O=C(/C=C/C=C/c1ccccc1)c1ccccc1O | 1121.1 | 
O=C(/C=C/c1cccc([N+](=O)[O-])c1)c1ccccc1 | 994.4 | 
O=C(/C=C/c1ccc2c(c1)OCO2)c1ccccc1 | 5 | 
O=C(/C=C/c1ccc([N+](=O)[O-])cc1)c1ccc(O)cc1 | 91 | 
O=C(/C=C/c1ccccc1)c1ccc(O)cc1 [4'-HYDROXYCHALCONE] | 238 | 
CC(/C=C/c1ccccc1)=N\Nc1ccc([N+](=O)[O-])cc1[N+](=O)[O-] | 2344.1 | inactive
O=C(/C=C/c1ccccc1)/C=C/c1ccccc1 | 2064.4 | 
O=C(/C=C/C=C/c1ccccc1)c1ccccc1 | 437 | 
O=C(/C=C/c1ccc2c(c1)OCO2)c1ccccc1O | 986.1 | 
O=C(/C=C/c1ccccc1O)c1ccccc1 | 104 | 100%
COc1cccc(/C=C/C(=O)c2ccccc2O)c1-c1ccc(O)cc1 | 684.9 | 
CC(/C=C/c1ccccc1)=N\NC(N)=O | 2087.9 | 
O=C(/C=C/c1ccco1)c1ccccc1O | 19 | 100%
O=C(/C=C/c1cccc([N+](=O)[O-])c1)c1ccccc1O | 526.6 | 
O=C(/C=C/c1cccc([N+](=O)[O-])c1)c1ccc(O)cc1 | 89 | 
C(=C\c1ccccc1)/C(=N/Nc1ccccc1)c1ccccc1 | 2134.5 | 
